For one assay, the system named is HEK293. As to the kind of experiment: cells. It counts as functional, cell-based. As to conditions: Homo sapiens.
The target in assay [1] is T1, Nuclear receptor subfamily 0 group B member 1 (Homo sapiens, UniProt P51843).
T1 sequence (P51843 whole entry): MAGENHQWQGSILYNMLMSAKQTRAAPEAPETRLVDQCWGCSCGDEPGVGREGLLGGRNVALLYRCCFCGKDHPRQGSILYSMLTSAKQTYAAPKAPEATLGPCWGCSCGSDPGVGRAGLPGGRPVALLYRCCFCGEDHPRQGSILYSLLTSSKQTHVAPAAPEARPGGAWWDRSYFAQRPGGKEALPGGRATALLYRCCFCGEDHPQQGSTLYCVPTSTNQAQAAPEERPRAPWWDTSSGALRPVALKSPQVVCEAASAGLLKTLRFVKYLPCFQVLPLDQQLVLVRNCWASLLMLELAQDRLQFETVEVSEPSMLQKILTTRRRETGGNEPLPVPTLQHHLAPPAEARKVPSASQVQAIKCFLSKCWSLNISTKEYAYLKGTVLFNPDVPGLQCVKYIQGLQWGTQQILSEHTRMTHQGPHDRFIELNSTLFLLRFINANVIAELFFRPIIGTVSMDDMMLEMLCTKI
As to the kind of experiment: Luminescence-based cell-based high throughput dose response assay for inhibitors of the orphan nuclear receptor subfamily 0, group B, member 1 (DAX1; NR0B1). [Related pubchem assays (depositor defined):AID504766, AID504790]. It counts as functional.

The source made the active and inactive calls. The rule behind the calls is not given here.

The IC50 is the concentration needed to halve the response being measured.

Turning to `O=C(CCCC(=O)N1CCN(c2ccccc2F)CC1)c1ccccc1`, the IC50 (in the assay on HEK293; in assay [1]) was > 67.5 µM (inactive) each time.

As for `CC(=O)Nc1cc(C)c2nc(NC(C)=O)sc2c1`, the IC50 (with HEK293; in assay [1]) was > 67.6 µM (inactive) in each case.

The values above are taken from ChEMBL document CHEMBL1201862, “PubChem BioAssay data set” (2004).
